According to ChEMBL document CHEMBL1781873, “Synthesis and antibacterial property of pyrrolopyrano quinolinones and pyrroloquinolines” (2011):
Converted amounts (≈) assume the structure as drawn. The source made the active and inactive calls. The rule behind the calls is not given here.

Legend:
Bacillus subtilis [1] = test: Antibacterial activity against Bacillus subtilis at 15 ug after 24 hrs by disc diffusion assay; type: functional; details: read-out: IZ
Staphylococcus aureus [2] = test: Antibacterial activity against Staphylococcus aureus after 18 to 20 hrs by broth micro dilution assay; type: functional
Staphylococcus aureus [3] = test: Antibacterial activity against Staphylococcus aureus at 5 ug after 24 hrs by disc diffusion assay; type: functional; details: read-out: IZ
Escherichia coli [4] = test: Antibacterial activity against Escherichia coli at 15 ug after 24 hrs by disc diffusion assay; type: functional; details: read-out: IZ
Staphylococcus aureus [5] = test: Antibacterial activity against Staphylococcus aureus at 10 ug after 24 hrs by disc diffusion assay; type: functional; details: read-out: IZ
Klebsiella pneumoniae [6] = test: Antibacterial activity against Klebsiella pneumoniae at 15 ug after 24 hrs by disc diffusion assay; type: functional; details: read-out: IZ
Pseudomonas aeruginosa [7] = test: Antibacterial activity against Pseudomonas aeruginosa at 20 ug after 24 hrs by disc diffusion assay; type: functional; details: read-out: IZ
Salmonella typhi [8] = test: Antibacterial activity against Salmonella typhi at 5 ug after 24 hrs by disc diffusion assay; type: functional, Salmonella enterica subsp. enterica serovar Typhi; details: Salmonella enterica, read-out: IZ
Klebsiella pneumoniae [9] = test: Antibacterial activity against Klebsiella pneumoniae at 5 ug after 24 hrs by disc diffusion assay; type: functional; details: read-out: IZ
Escherichia coli [10] = test: Inhibition of DNA gyrase mRNA expression in Escherichia coli measured up to 24 hrs by RT-PCR; type: functional, organism-based
Pseudomonas aeruginosa [11] = test: Antibacterial activity against Pseudomonas aeruginosa at 15 ug after 24 hrs by disc diffusion assay; type: functional; details: read-out: IZ
Klebsiella pneumoniae [12] = test: Antibacterial activity against Klebsiella pneumoniae at 10 ug after 24 hrs by disc diffusion assay; type: functional; details: read-out: IZ
Bacillus subtilis [13] = test: Antibacterial activity against Bacillus subtilis at 25 ug after 24 hrs by disc diffusion assay; type: functional; details: read-out: IZ
Bacillus subtilis [14] = test: Antibacterial activity against Bacillus subtilis at 20 ug after 24 hrs by disc diffusion assay; type: functional; details: read-out: IZ
Escherichia coli [15] = test: Antibacterial activity against Escherichia coli at 5 ug after 24 hrs by disc diffusion assay; type: functional; details: read-out: IZ
Pseudomonas aeruginosa [16] = test: Antibacterial activity against Pseudomonas aeruginosa at 5 ug after 24 hrs by disc diffusion assay; type: functional; details: read-out: IZ
Pseudomonas aeruginosa [17] = test: Antibacterial activity against Pseudomonas aeruginosa at 10 ug after 24 hrs by disc diffusion assay; type: functional; details: read-out: IZ
Klebsiella pneumoniae [18] = test: Antibacterial activity against Klebsiella pneumoniae after 18 to 20 hrs by broth micro dilution assay; type: functional
Escherichia coli [19] = test: Antibacterial activity against Escherichia coli at 25 ug after 24 hrs by disc diffusion assay; type: functional; details: read-out: IZ
Bacillus subtilis [20] = test: Antibacterial activity against Bacillus subtilis after 18 to 20 hrs by broth micro dilution assay; type: functional
Staphylococcus aureus [21] = test: Antibacterial activity against Staphylococcus aureus at 25 ug after 24 hrs by disc diffusion assay; type: functional; details: read-out: IZ
Escherichia coli [22] = test: Inhibition of Escherichia coli DNA gyrase assessed as inhibition of DNA supercoiling activity using pBR322 DNA as substrate at […] after 3 hrs by agarose gel electrophoresis
Escherichia coli [23] = test: Inhibition of Escherichia coli DNA gyrase -mediated DNA relaxation using pBR322 DNA as substrate at […] after 1 hrs by agarose gel electrophoresis
Staphylococcus aureus [24] = test: Antibacterial activity against Staphylococcus aureus at 20 ug after 24 hrs by disc diffusion assay; type: functional; details: read-out: IZ
Salmonella typhi [25] = test: Antibacterial activity against Salmonella typhi at 10 ug after 24 hrs by disc diffusion assay; type: functional, Salmonella enterica subsp. enterica serovar Typhi; details: Salmonella enterica, read-out: IZ
Klebsiella pneumoniae [26] = test: Antibacterial activity against Klebsiella pneumoniae at 25 ug after 24 hrs by disc diffusion assay; type: functional; details: read-out: IZ
Klebsiella pneumoniae [27] = test: Antibacterial activity against Klebsiella pneumoniae at 20 ug after 24 hrs by disc diffusion assay; type: functional; details: read-out: IZ
Salmonella typhi [28] = test: Antibacterial activity against Salmonella typhi at 20 ug after 24 hrs by disc diffusion assay; type: functional, Salmonella enterica subsp. enterica serovar Typhi; details: Salmonella enterica, read-out: IZ
Pseudomonas aeruginosa [29] = test: Antibacterial activity against Pseudomonas aeruginosa after 18 to 20 hrs by broth micro dilution assay; type: functional
Escherichia coli [30] = test: Antibacterial activity against Escherichia coli at 10 ug after 24 hrs by disc diffusion assay; type: functional; details: read-out: IZ
Pseudomonas aeruginosa [31] = test: Antibacterial activity against Pseudomonas aeruginosa at 25 ug after 24 hrs by disc diffusion assay; type: functional; details: read-out: IZ
Salmonella typhi [32] = test: Antibacterial activity against Salmonella typhi at 25 ug after 24 hrs by disc diffusion assay; type: functional, Salmonella enterica subsp. enterica serovar Typhi; details: Salmonella enterica, read-out: IZ
Salmonella typhi [33] = test: Antibacterial activity against Salmonella typhi at 15 ug after 24 hrs by disc diffusion assay; type: functional, Salmonella enterica subsp. enterica serovar Typhi; details: Salmonella enterica, read-out: IZ
Salmonella typhi [34] = test: Antibacterial activity against Salmonella typhi after 18 to 20 hrs by broth micro dilution assay; type: functional, Salmonella enterica subsp. enterica serovar Typhi; details: Salmonella enterica
Staphylococcus aureus [35] = test: Antibacterial activity against Staphylococcus aureus at 15 ug after 24 hrs by disc diffusion assay; type: functional; details: read-out: IZ
Escherichia coli [36] = test: Antibacterial activity against Escherichia coli at 20 ug after 24 hrs by disc diffusion assay; type: functional; details: read-out: IZ
Escherichia coli [37] = test: Antibacterial activity against Escherichia coli after 18 to 20 hrs by broth micro dilution assay; type: functional

SMILES: CCC1[C@@H]2Nc3ccc(Cl)cc3C(C)(C)[C@H]2CN1OS(=O)(=O)c1ccc(C)cc1 (stereo partly specified)
- zone of inhibition at 15 µg/disc (Bacillus subtilis [1]): 6 mm
- MIC50 (Staphylococcus aureus [2]): 128 µg/mL (≈ 294 µM)
- MIC90 (Staphylococcus aureus [2]): 128 µg/mL (≈ 294 µM)
- zone of inhibition at 5 µg/disc (Staphylococcus aureus [3]): 20 mm
- zone of inhibition at 15 µg/disc (Escherichia coli [4]): 18 mm
- zone of inhibition at 10 µg/disc (Staphylococcus aureus [5]): 24 mm
- zone of inhibition at 15 µg/disc (Klebsiella pneumoniae [6]): 30 mm
- zone of inhibition at 20 µg/disc (Pseudomonas aeruginosa [7]): 20 mm
- zone of inhibition at 5 µg/disc (Salmonella typhi [8]): 10 mm
- zone of inhibition at 5 µg/disc (Klebsiella pneumoniae [9]): 20 mm
- inhibition of gyrase mRNA expression (active/not active) (Escherichia coli [10]): Active
- zone of inhibition at 15 µg/disc (Pseudomonas aeruginosa [11]): 16 mm
- zone of inhibition at 10 µg/disc (Klebsiella pneumoniae [12]): 26 mm
- zone of inhibition at 25 µg/disc (Bacillus subtilis [13]): 9 mm
- zone of inhibition at 20 µg/disc (Bacillus subtilis [14]): 7 mm
- zone of inhibition at 5 µg/disc (Escherichia coli [15]): 10 mm
- zone of inhibition at 5 µg/disc (Pseudomonas aeruginosa [16]): 10 mm
- zone of inhibition at 10 µg/disc (Pseudomonas aeruginosa [17]): 14 mm
- MIC50 (Klebsiella pneumoniae [18]): 128 µg/mL (≈ 294 µM)
- MIC90 (Klebsiella pneumoniae [18]): 128 µg/mL (≈ 294 µM)
- zone of inhibition at 25 µg/disc (Escherichia coli [19]): 23 mm
- MIC50 (Bacillus subtilis [20]): 128 µg/mL (≈ 294 µM)
- MIC90 (Bacillus subtilis [20]): 128 µg/mL (≈ 294 µM)
- zone of inhibition at 25 µg/disc (Staphylococcus aureus [21]): 36 mm
- DNA gyrase inhibition (active/inactive) (Escherichia coli [22]): Active
- inhibition (Escherichia coli [23]): Active
- zone of inhibition at 20 µg/disc (Staphylococcus aureus [24]): 30 mm
- zone of inhibition at 10 µg/disc (Salmonella typhi [25]): 16 mm
- zone of inhibition at 25 µg/disc (Klebsiella pneumoniae [26]): 36 mm
- zone of inhibition at 20 µg/disc (Klebsiella pneumoniae [27]): 34 mm
- zone of inhibition at 20 µg/disc (Salmonella typhi [28]): 22 mm
- MIC50 (Pseudomonas aeruginosa [29]): 128 µg/mL (≈ 294 µM)
- MIC90 (Pseudomonas aeruginosa [29]): 128 µg/mL (≈ 294 µM)
- zone of inhibition at 10 µg/disc (Escherichia coli [30]): 16 mm
- zone of inhibition at 25 µg/disc (Pseudomonas aeruginosa [31]): 23 mm
- zone of inhibition at 25 µg/disc (Salmonella typhi [32]): 24 mm
- zone of inhibition at 15 µg/disc (Salmonella typhi [33]): 18 mm
- MIC50 (Salmonella typhi [34]): 128 µg/mL (≈ 294 µM)
- MIC90 (Salmonella typhi [34]): 128 µg/mL (≈ 294 µM)
- zone of inhibition at 15 µg/disc (Staphylococcus aureus [35]): 26 mm
- zone of inhibition at 20 µg/disc (Escherichia coli [36]): 20 mm
- MIC50 (Escherichia coli [37]): 128 µg/mL (≈ 294 µM)
- MIC90 (Escherichia coli [37]): 128 µg/mL (≈ 294 µM)

SMILES: CCC1[C@H]2c3c(n(C)c4ccccc4c3=O)OC(c3ccccc3)[C@@H]2CN1OS(=O)(=O)c1ccc(C)cc1 (mixture of isomers)
- zone of inhibition at 15 µg/disc (Bacillus subtilis [1]): 6 mm
- MIC50 (Staphylococcus aureus [2]): 128 µg/mL
- MIC90 (Staphylococcus aureus [2]): 128 µg/mL
- zone of inhibition at 5 µg/disc (Staphylococcus aureus [3]): 20 mm
- zone of inhibition at 15 µg/disc (Escherichia coli [4]): 16 mm
- zone of inhibition at 10 µg/disc (Staphylococcus aureus [5]): 24 mm
- zone of inhibition at 15 µg/disc (Klebsiella pneumoniae [6]): 30 mm
- zone of inhibition at 20 µg/disc (Pseudomonas aeruginosa [7]): 20 mm
- zone of inhibition at 5 µg/disc (Salmonella typhi [8]): 10 mm
- zone of inhibition at 5 µg/disc (Klebsiella pneumoniae [9]): 20 mm
- inhibition of gyrase mRNA expression (active/not active) (Escherichia coli [10]): Active
- zone of inhibition at 15 µg/disc (Pseudomonas aeruginosa [11]): 16 mm
- zone of inhibition at 10 µg/disc (Klebsiella pneumoniae [12]): 26 mm
- zone of inhibition at 25 µg/disc (Bacillus subtilis [13]): 9 mm
- zone of inhibition at 20 µg/disc (Bacillus subtilis [14]): 7 mm
- zone of inhibition at 5 µg/disc (Escherichia coli [15]): 12 mm
- zone of inhibition at 5 µg/disc (Pseudomonas aeruginosa [16]): 10 mm
- zone of inhibition at 10 µg/disc (Pseudomonas aeruginosa [17]): 14 mm
- MIC50 (Klebsiella pneumoniae [18]): 128 µg/mL
- MIC90 (Klebsiella pneumoniae [18]): 128 µg/mL
- zone of inhibition at 25 µg/disc (Escherichia coli [19]): 23 mm
- MIC50 (Bacillus subtilis [20]): 128 µg/mL
- MIC90 (Bacillus subtilis [20]): 128 µg/mL
- zone of inhibition at 25 µg/disc (Staphylococcus aureus [21]): 36 mm
- DNA gyrase inhibition (active/inactive) (Escherichia coli [22]): Active
- inhibition (Escherichia coli [23]): Active
- zone of inhibition at 20 µg/disc (Staphylococcus aureus [24]): 30 mm
- zone of inhibition at 10 µg/disc (Salmonella typhi [25]): 16 mm
- zone of inhibition at 25 µg/disc (Klebsiella pneumoniae [26]): 36 mm
- zone of inhibition at 20 µg/disc (Klebsiella pneumoniae [27]): 34 mm
- zone of inhibition at 20 µg/disc (Salmonella typhi [28]): 22 mm
- MIC50 (Pseudomonas aeruginosa [29]): 128 µg/mL
- MIC90 (Pseudomonas aeruginosa [29]): 128 µg/mL
- zone of inhibition at 10 µg/disc (Escherichia coli [30]): 14 mm
- zone of inhibition at 25 µg/disc (Pseudomonas aeruginosa [31]): 23 mm
- zone of inhibition at 25 µg/disc (Salmonella typhi [32]): 24 mm
- zone of inhibition at 15 µg/disc (Salmonella typhi [33]): 18 mm
- MIC50 (Salmonella typhi [34]): 128 µg/mL
- MIC90 (Salmonella typhi [34]): 128 µg/mL
- zone of inhibition at 15 µg/disc (Staphylococcus aureus [35]): 26 mm
- zone of inhibition at 20 µg/disc (Escherichia coli [36]): 22 mm
- MIC50 (Escherichia coli [37]): 128 µg/mL
- MIC90 (Escherichia coli [37]): 128 µg/mL
